Laboratory results published in patent publication US9096565B2, “Inhibitors of histone deacetylase” (MethylGene Inc., priority 2007, dated 2015).
pIC50: −log10 of the molar value.

Target: one or more of HDAC-4, HDAC-5, HDAC-6, HDAC-7, HDAC-8, HDAC-9, HDAC-10 and HDAC-11
Test: Inhibition of histone deacetylase enzymatic activity (summary statement over isoforms)
Type: biochemical
Conditions: Table 3, selected examples; HDAC isoform not given
Protocol: The following protocol is used to assay the compounds of the invention.
The mixture is pre-incubated for 5 minutes at room temperature. The reaction is started by bringing the temperature to 37° C. and adding 15 μL substrate. Total reaction volume is 50 μL.
A 30 mM stock of Boc-Lys(trifluoroacetyl)-AMC substrate is prepared in DMSO. […] Reaction is started by adding 18 μL Boc-Lys(trifluoroacetyl)-AMC substrate and incubating at 37° C. for 20-30 minutes. The reaction is stopped by adding 50 μL trypsin (1 mg/mL) and a known HDAC inhibitor.

pIC50	Compound
> 6.00	O=C(NO)C(Oc1ccccc1)c1ccccc1 (centres unmarked) [Compound 1-2, N-hydroxy-2-phenoxy-2-phenylacetamide]
> 6.00	O=C(NO)C(c1ccccc1)N1CCCCC1 (centres unmarked) [Compound 1-4, N-hydroxy-2-phenyl-2-(piperidin-1-yl)acetamide]
4.82 to 6.00	O=C(CN(Cc1ccccc1)S(=O)(=O)c1ccccc1)NO [Compound 1-5, 2-(N-benzylphenylsulfonamido)-N-hydroxyacetamide]
> 6.00	O=C(CC(c1ccccc1)c1ccccc1)NO [Compound 1-6, N-hydroxy-3,3-diphenylpropanamide]
> 6.00	O=C(NO)C(c1ccc2c(c1)CCO2)c1ccc2c(c1)CCO2 [Compound 1-8, 2,2-bis(2,3-dihydrobenzofuran-5-yl)-N-hydroxyacetamide]
> 6.00	O=C(NO)C(c1ccccc1)N1CCC(Cc2ccccc2)CC1 (centres unmarked) [Compound 1-9, 2-(4-benzylpiperidin-1-yl)-N-hydroxy-2-phenylacetamide]
> 6.00	O=C(NO)C(c1ccccc1)C1CCCCC1 (centres unmarked) [Compound 1-10, 2-cyclohexyl-N-hydroxy-2-phenylacetamide]
4.82 to 6.00	O=C(NO)C(Cc1ccccc1)c1ccccc1 (centres unmarked) [Compound 1-11, N-hydroxy-2,3-diphenylpropanamide]
> 6.00	O=C(NO)C(Sc1ccccc1)c1ccccc1 (centres unmarked) [Compound 1-12, N-hydroxy-2-phenyl-2-(phenylthio)acetamide]
4.82 to 6.00	O=C(NO)C(c1ccccc1)n1cccc1 (centres unmarked) [Compound 1-13, N-hydroxy-2-phenyl-2-(1H-pyrrol-1-yl)acetamide]
> 6.00	CC(C(=O)NO)(c1ccccc1)c1ccccc1 [Compound 1-14, N-hydroxy-2,2-diphenylpropanamide]
> 6.00	O=C(NO)C(c1ccc(Cl)cc1)c1ccc(Cl)cc1 [Compound 1-15, 2,2-bis(4-chlorophenyl)-N-hydroxyacetamide]
> 6.00	O=C(NO)C(c1ccccc1)N1CCN(c2ccccc2)CC1 (centres unmarked) [Compound 1-16, N-hydroxy-2-phenyl-2-(4-phenylpiperazin-1-yl)acetamide]
4.82 to 6.00	O=C(NO)C(c1ccccc1)N1CCN(Cc2ccccc2)CC1 (centres unmarked) [Compound 1-17, 2-(4-benzylpiperazin-1-yl)-N-hydroxy-2-phenylacetamide]
> 6.00	O=C(NO)C(c1ccc(F)cc1)c1ccc(F)cc1 [Compound 1-18, 2,2-bis(4-fluorophenyl)-N-hydroxyacetamide]
> 6.00	CCN(CC)c1ccc(C(C(=O)NO)c2ccccc2)cc1 (centres unmarked) [Compound 1-19, 2-(4-(diethylamino)phenyl)-N-hydroxy-2-phenylacetamide]
> 6.00	O=C(NO)C(c1ccccc1)c1nc2ccc(-c3cccs3)cc2[nH]1 (centres unmarked) [Compound 1-20, N-hydroxy-2-phenyl-2-(6-(thiophen-2-yl)-1H-benzo[d]imidazol-2-yl)acetamide]
> 6.00	O=C(NO)/C(=C/c1ccccc1)c1ccccc1 [Compound 1-21, (E)-N-hydroxy-2,3-diphenylacrylamide]
4.82 to 6.00	O=C(NO)C(c1ccccc1)N1Cc2ccccc2C1 (centres unmarked) [Compound 1-22, N-hydroxy-2-(isoindolin-2-yl)-2-phenylacetamide]
4.82 to 6.00	O=C(NO)C(c1cccs1)c1cccs1 [Compound 1-23, N-hydroxy-2,2-di(thiophen-2-yl)acetamide]
> 6.00	O=C(NO)C(Sc1nc2ccccc2s1)c1ccccc1 (centres unmarked) [Compound 1-24, 2-(benzo[d]thiazol-2-ylthio)-N-hydroxy-2-phenylacetamide]
4.82 to 6.00	O=C(NO)C(c1ccccc1)c1nc2cc(Cl)c(F)cc2[nH]1 (centres unmarked) [Compound 1-25, 2-(5-chloro-6-fluoro-1H-benzo[d]imidazol-2-yl)-N-hydroxy-2-phenylacetamide]
> 6.00	O=C(NO)C(c1ccccc1)n1cc(-c2ccccc2)nn1 (centres unmarked) [Compound 1-26, N-hydroxy-2-phenyl-2-(4-phenyl-1H-1,2,3-triazol-1-yl)acetamide]

pIC50	Compound
4.82 to 6.00	O=C(NO)C(c1ccccc1)n1cc(CCc2ccccc2)nn1 (centres unmarked) [Compound 1-27, N-hydroxy-2-(4-phenethyl-1H-1,2,3-triazol-1-yl)-2-phenylacetamide]
> 6.00	CN(C)c1ccc(C(C(=O)NO)c2ccccc2)cc1 (centres unmarked) [Compound 1-29, 2-(4-(dimethylamino)phenyl)-N-hydroxy-2-phenylacetamide]
> 6.00	O=C(NO)C(c1ccccc1)N1CCC(Cc2ccc(F)cc2)CC1 (centres unmarked) [Compound 1-30, 2-(4-(4-fluorobenzyl)piperidin-1-yl)-N-hydroxy-2-phenylacetamide]
> 6.00	O=C(NO)C(c1ccccc1)N1CCC(CCc2ccccc2)CC1 (centres unmarked) [Compound 1-31, N-hydroxy-2-(4-phenethylpiperidin-1-yl)-2-phenylacetamide]
> 6.00	O=C(NO)C(c1ccccc1)c1ccc(-c2ccccc2)cc1 (centres unmarked) [Compound 1-32, 2-(biphenyl-4-yl)-N-hydroxy-2-phenylacetamide]
> 6.00	O=C(NO)C(C(=O)Nc1cccc(C(F)(F)F)c1)c1ccccc1 (centres unmarked) [Compound 1-33, N1-hydroxy-2-phenyl-N3-(3-(trifluoromethyl)phenyl)malonamide]
> 6.00	O=C(NO)C(c1ccccc1)n1cc(Cc2ccccc2)nn1 (centres unmarked) [Compound 1-35, 2-(4-benzyl-1H-1,2,3-triazol-1-yl)-N-hydroxy-2-phenylacetamide]
> 6.00	O=C(NO)C(c1ccccc1)N1CCN(c2ncccn2)CC1 (centres unmarked) [Compound 1-36, N-hydroxy-2-phenyl-2-(4-(pyrimidin-2-yl)piperazin-1-yl)acetamide]
> 6.00	O=C(NO)C(Sc1nccc(-c2ccc(Cl)cc2)n1)c1ccccc1 (centres unmarked) [Compound 1-37, 2-(4-(4-chlorophenyl)pyrimidin-2-ylthio)-N-hydroxy-2-phenylacetamide]
> 6.00	COc1ccccc1-c1nnc(C(C(=O)NO)c2ccccc2)s1 (centres unmarked) [Compound 1-38, N-hydroxy-2-(5-(2-methoxyphenyl)-1,3,4-thiadiazol-2-yl)-2-phenylacetamide]
> 6.00	O=C(NO)C(c1ccccc1)c1nnc(-c2ccc(Br)cc2)s1 (centres unmarked) [Compound 1-39, 2-(5-(4-bromophenyl)-1,3,4-thiadiazol-2-yl)-N-hydroxy-2-phenylacetamide]
> 6.00	CN(C)c1ccc(C(C(=O)NO)c2ccc(-c3ccccc3)cc2)cc1 (centres unmarked) [Compound 1-40, 2-(biphenyl-4-yl)-2-(4-(dimethylamino)phenyl)-N-hydroxyacetamide]
> 6.00	O=C(NO)C(c1ccccc1)c1ccc(N2CCCC2)cc1 (centres unmarked) [Compound 1-41, N-hydroxy-2-phenyl-2-(4-(pyrrolidin-1-yl)phenyl)acetamide]
4.82 to 6.00	O=C(NO)C(Sc1nc(-c2ccccc2)c(-c2ccccc2)[nH]1)c1ccccc1 (centres unmarked) [Compound 1-42, 2-(4,5-diphenyl-1H-imidazol-2-ylthio)-N-hydroxy-2-phenylacetamide]
> 6.00	O=C(NO)C(c1ccccc1)N1CCC(Oc2ccccc2)CC1 (centres unmarked) [Compound 1-43, N-hydroxy-2-(4-phenoxypiperidin-1-yl)-2-phenylacetamide]
> 6.00	O=C(NO)C(c1ccccc1)N1CCC(c2ccccc2)CC1 (centres unmarked) [Compound 1-44, N-hydroxy-2-phenyl-2-(4-phenylpiperidin-1-yl)acetamide]
> 6.00	O=C(NO)C(c1ccccc1)c1ccc(-c2ccc(F)cc2)cc1 (centres unmarked) [Compound 1-45, 2-(4′-fluorobiphenyl-4-yl)-N-hydroxy-2-phenylacetamide]
> 6.00	O=C(NO)C(Sc1ccc(-c2ccccc2)cc1)c1ccccc1 (centres unmarked) [Compound 1-46, 2-(biphenyl-4-ylthio)-N-hydroxy-2-phenylacetamide]
> 6.00	O=CN(O)C(c1ccccc1)c1ccccc1 [Compound 1-47, N-benzhydryl-N-hydroxyformamide]
> 6.00	O=C(NO)C(c1ccccc1)c1cccc(OCc2ccccc2)c1 (centres unmarked) [Compound 2-6, 2-(3-(benzyloxy)phenyl)-N-hydroxy-2-phenylacetamide]
4.82 to 6.00	O=C(NO)C(c1ccccc1)c1cccc(OCCc2ccccc2)c1 (centres unmarked) [Compound 2-7, N-hydroxy-2-(3-phenethoxyphenyl)-2-phenylacetamide]
> 6.00	O=C(NO)C(c1ccccc1)c1cccc(OCc2ccc(F)cc2)c1 (centres unmarked) [Compound 2-8, 2-(3-(4-fluorobenzyloxy)phenyl)-N-hydroxy-2-phenylacetamide]
> 6.00	O=C(NO)C(c1ccccc1)c1ccc(OCC(=O)N2CCOCC2)cc1 (centres unmarked) [Compound 2-11, N-hydroxy-2-(4-(2-morpholino-2-oxoethoxy)phenyl)-2-phenylacetamide]

Compound	pIC50
2-(3-(benzo[d][1,3]dioxol-5-ylmethylbenzo[d][1,3]dioxol-5-ylmethoxy)phenyl)-N-hydroxy-2-phenylacetamide [Compound 3-7]	> 6.00
2-(4-(benzo[d][1,3]dioxol-5-ylmethylbenzo[d][1,3]dioxol-5-ylmethoxy)phenyl)-N-hydroxy-2-phenylacetamide [Compound 3-11]	> 6.00
O=C(NO)C(c1ccc([N+](=O)[O-])cc1)c1ccc([N+](=O)[O-])cc1 [Compound 1-3, N-hydroxy-2,2-bis(4-nitrophenyl)acetamide]	> 6.00
O=C(NO)C(O)(c1ccccc1)c1ccccc1 [Compound 1-28, N,2-dihydroxy-2,2-diphenylacetamide]	> 6.00
O=C(NO)C(c1ccccc1)N1CCC(c2c[nH]c3ccccc23)CC1 (centres unmarked) [Compound 1-34, 2-(4-(1H-indol-3-yl)piperidin-1-yl)-N-hydroxy-2-phenylacetamide]	> 6.00
CCCCOc1cccc(C(C(=O)NO)c2ccccc2)c1 (centres unmarked) [Compound 2-5, 2-(3-butoxyphenyl)-N-hydroxy-2-phenylacetamide]	4.82 to 6.00
CCCCOc1ccc(C(C(=O)NO)c2ccccc2)cc1 (centres unmarked) [Compound 2-10, 2-(4-butoxyphenyl)-N-hydroxy-2-phenylacetamide]	4.82 to 6.00
